Experimental data reported in patent US10172812B2, “Compounds and methods for treating muscular dystrophy and other disorders” (The Charlotte Mecklenburg Hospital Authority, priority 2017, dated 2019).
Entries after “also recorded” stand apart in the source; their conditions may differ.

Columns and labels:
Assay type in all cases: in vivo, mouse
[1] = system: FKRP-P448L mutant dystrophic mice; assay: Treadmill exercise in FKRP P448L mutant mice; details: 1 year treatment, vs saline-treated cohort
Description: FIG. 6. […] Saline treated control, column 1; C57 normal control, column 8).
(§1) This invention applies tamoxifen and raloxifene for clinical use in FKRP mutant dystrophic mouse models for the treatment of dystroglycanopathies, specifically those caused by mutations in the FKRP gene. Mutations in the FKRP gene cause muscular dystrophy with the lack of functional glycosylation of alpha-dystroglycan (α-DG) as the characteristic biochemical marker in the diseased tissues. Mouse models with the FKRP mutations present in patients show the same biochemical feature as patients' tissues, most prominently in muscles (Chan Y M, Hum Mol Genet 2010, 19(20): 3995-4006; Blaeser A, Hum Genet 2013, 132(8): 923-934). […] Histologically, the diseased muscles undergo continuous degeneration as indicated by the presence of degenerating muscle fibers, variation in fiber size, presence of centrally nucleated fibers (a result of regeneration which is the consequence of muscle damage), inflammatory cells and an increase in non-muscle fiber connective tissues (FIG. 1). […] The best results were obtained with 5-10 mg/kg tamoxifen and 50 mg/kg raloxifene, which would be equivalent to human equivalent dose (HED) of about 0.5 mg/kg for tamoxifen and 5 mg/kg for raloxifene.

[2] = system: glycosylated alpha-dystroglycan (α-DG); assay: Immunohistochemistry with monoclonal antibody IIH6 on muscles of treated FKRP mutant mice
Description: FIG. 2. […] C57 normal mouse muscles were used as controls. Saline, mice treated with saline as negative control. The positive staining is seen surrounding the fiber membrane and a few revertant fibers are observed in the saline treated controls.
as §1, with “raloxifene. […] The improvement in muscle function and pathology is even greater after 1 year treatment.” for “raloxifene.”

[3] = system: FKRP-P448L mutant dystrophic mice; assay: Grip force measurement in FKRP P448L mutant mice
Description: FIG. 3. […] C57 normal mice muscles as controls. Saline, mice treated with saline as negative control.
FIG. 5. […] Saline treated control, column 1; C57 normal control, column 8).
as §1

[4] = system: FKRP-P448L mutant dystrophic mice; assay: Overall therapeutic effect (muscle pathology and function) on feeding FKRP-P448L mutant mice; details: for dose giving the best results / muscle pathology and function: feeding 5 days a week; for dose relation of the therapeutic effects: tamoxifen 2, 5, 10, 50 mg/kg/day, raloxifene 10, 50, 100 mg/kg/day
Description: as §1, with “raloxifene. […] The improvement in muscle function and pathology is even greater after 1 year treatment.” for “raloxifene.”

[5] = system: FKRP-P448L mutant dystrophic mice; assay: Muscle histology (H&E staining) in FKRP P448L mutant mice; details: for fibrotic streaks in cardiac muscle / histology (H&E) / inflammation, degeneration and fibrotic tissue in skeletal muscle: 1 year of treatment, 5 day a week; for inflammation, degeneration and fibrotic tissue in muscle / muscle pathology (H&E): 6 month treatment, 5 days a week, 10 mg/kg, vs saline
Method: FIG. 1. […] C57 normal mouse muscles were used as controls. Saline, mice treated with saline as negative control. […] Hematoxylin and eosin (H&E) staining was used.
FIG. 4. […] H&E staining was used. The therapeutic effect is best seen with 10 mg/kg tamoxifen treatment. […] C57 normal mouse muscles were used as controls. P448-Saline, mice treated with saline as negative control.
as §1, with “raloxifene. […] The improvement in muscle function and pathology is even greater after 1 year treatment.” for “raloxifene.”

[6] = 6 months of treatment, 5 days a week, 10 mg/kg; vs saline
[7] = 2 mg/kg/day, 1 year treatment; vs saline-treated cohort
[8] = 50 mg/kg/day, 1 year treatment; vs saline-treated cohort

SMILES: CC/C(=C(\c1ccccc1)c1ccc(OCCN(C)C)cc1)c1ccccc1 [tamoxifen]
- treadmill running distance ([1]; 2 mg/kg/day): Significant improvement
- treadmill running time ([1]; 2 mg/kg/day): did not reach significance
- treadmill running distance ([1]; 10 mg/kg/day): Significant improvement
- treadmill running time ([1]; 10 mg/kg/day): Significant improvement
- treadmill running distance ([1]; 50 mg/kg/day): Significant improvement
- treadmill running time ([1]; 50 mg/kg/day): Significant improvement
- levels of glycosylated alpha-dystroglycan (α-DG) detected with IIH6 ([2]; 6 months of treatment, 5 days a week, 10 mg/kg, vs saline): enhance the levels of glycosylated alpha-dystroglycan; also recorded: enhanced expression of alpha-DG
- number of IIH6 positive fibers [2, 6]: clearly increased
- grip force measurement (other than hindlimb) [3, 7]: Significant improvement
- grip force measurement, hindlimb [3, 7]: did not reach significance
- grip force measurement ([3]; 10 mg/kg/day, 1 year treatment; vs saline-treated cohort): Significant improvement
- grip force measurement [3, 8]: Significant improvement
- muscle function by grip force measurement ([3]; 6 months of treatment, 5 days a week, 10 mg/kg; vs saline; 10 mg/kg): improved muscle function
- dose giving the best results [4]: 5 to 10 mg/kg
- muscle pathology and function [4]: significantly improved muscle pathology and function
- dose relation of the therapeutic effects [4]: dose-related with increasing efficacy
- fibrotic streaks in cardiac muscle ([5]; 10 mg/kg/day): Reduced fibrotic streaks
- histology (H&E) ([5]; 10 mg/kg/day): Improvement in histology
- inflammation, degeneration and fibrotic tissue in skeletal muscle ([5]; 10 mg/kg/day): Reduction
- inflammation, degeneration and fibrotic tissue in muscle [5]: Reduction
- muscle pathology (H&E) [5]: significantly improve muscle pathology

SMILES: O=C(c1ccc(OCCN2CCCCC2)cc1)c1c(-c2ccc(O)cc2)sc2cc(O)ccc12 [raloxifene]
- treadmill running distance ([1]; 50 mg/kg/day): Significant improvement
- treadmill running time ([1]; 50 mg/kg/day): Significant improvement
- treadmill running distance ([1]; 100 mg/kg/day): Significant improvement
- treadmill running time ([1]; 100 mg/kg/day): Significant improvement
- levels of glycosylated alpha-dystroglycan (α-DG) detected with IIH6 [2, 6]: enhance the levels of glycosylated alpha-dystroglycan
- number of IIH6 positive fibers [2, 6]: clearly increased
- grip force measurement [3, 8]: Significant improvement
- grip force measurement ([3]; 100 mg/kg/day, 1 year treatment; vs saline-treated cohort): Significant improvement
- muscle function by grip force measurement [3, 6]: improve muscle function
- dose giving the best results [4]: 50 mg/kg
- muscle pathology and function [4]: significantly improved muscle pathology and function
- dose relation of the therapeutic effects [4]: dose-related with increasing efficacy
- fibrotic streaks in cardiac muscle ([5]; 50 mg/kg/day): Reduced fibrotic streaks
- histology (H&E) ([5]; 50 mg/kg/day): Improvement in histology
- inflammation, degeneration and fibrotic tissue in skeletal muscle ([5]; 50 mg/kg/day): Reduction
- inflammation, degeneration and fibrotic tissue in muscle [5]: Reduction
- muscle pathology (H&E) [5]: significantly improve muscle pathology
